Patent US10813944B2, “Cyclodextrins as procoagulants” (STICHTING SANQUIN BLOEDVOORZIENING, priority 2016, dated 2020)

Experiments:
[1] = tested on: plasma deficient in coagulation factor VIII; assay: Thrombin generation assay in plasma deficient in coagulation factor VIII; type: biochemical, human
Experimental: FIG. 20: Plasma deficient in coagulation factor VIII was spiked with cyclodextrin OKL-1111 (A), OKL-1180 (B), and OKL-1187 (C) at the indicated concentrations.
(§1) The Calibrated Automated Thrombogram® assays the generation of thrombin in clotting plasma using a microtiter plate reading fluorometer (Fluoroskan Ascent, ThermoLab systems, Helsinki, Finland) and Thrombinoscope® software (Thrombinoscope BV, Maastricht, The Netherlands). The assay was carried out as described by Hemker et al. (Pathofysiol. IIaemost. Thromb. 2003, 33, 4-15), and the Thrombinoscope® manual. Coagulation was triggered by recalcification in the presence of 1 or 5 pM recombinant human tissue factor (Innovin®, Siemens, Marburg, Germany), 4 μM phospholipids, and 417 μM fluorogenic substrate Z-Gly-Gly-Arg-AMC (Bachem, Bubendorf, Switzerland). Fluorescence was monitored using the Fluoroskan Ascent fluorometer (ThermoLabsystems, Helsinki, Finland), and the lag time, peak thrombin, velocity index and area under the curve (ETP) were calculated using the Thrombinoscope® software (Thrombinoscope BV).

Hemophilia A mice = assay: In vivo vena saphena bleeding model in hemophilia A mice
From the text: FIG. 30: Effect of OKL-1111 and OKL-1187 on coagulation in mouse hemophilia A assay.
All animal protocols were approved by the Institutional Animal Care and Use Committee of the University of North Carolina. C57BL6/J mice were purchased from Charles Rivers Laboratories (Willmington, Mass.). Bleeding studies were done essentially as previously described Pastoft et al. (Haemophilia 2012; 18:782-8). Mice were anesthetized with isoflurane throughout all procedures. The hair on the ventral side of both hind limbs was removed. The animals were placed supine on a temperature and ECG monitoring board. The paws were gently restrained by looping soft polyethylene tubing around them and attaching the tubing to the ECG board. The skin on the left and right ventral hind limb was incised which exposes a length of the saphenous neurovascular bundle; the bundle was covered with normal saline to prevent drying. To assess haemostasis, the right saphenous vein was transected by piercing it with a 23-G needle followed by a longitudinal incision made in the distal portion of the vessel. Blood was gently wicked away until haemostasis occurred. The clot was then removed to restart bleeding and the blood was again wicked away until haemostasis occurs again. […] Two parameters were measured: 1) the number of times that haemostasis occurs in a 30 minute period, and 2) the time required for each haemostasis. […]

[2] = tested on: thrombin generation in pooled normal plasma spiked with anticoagulants; assay: Thrombin generation assay in pooled normal plasma spiked with anticoagulants; type: biochemical, human; settings: 1 pM TF
Summary of the method: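 Pooled normal plasma spiked with cyclodextrins or OKL-1111 (typically 100 μM) plus anticoagulants at fixed levels (e.g., dabigatran, rivaroxaban 100 ng/ml; apixaban, edoxaban 60 ng/ml). Calibrated Automated Thrombogram triggered by recalcification with 1 pM tissue factor, 4 μM phospholipids and 417 μM Z-Gly-Gly-Arg-AMC; lag time, peak, velocity index and ETP derived.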

[3] = tested on: normal human plasma pretreated with inhibitory antibodies against factor VIII; assay: Thrombin generation in normal plasma spiked with inhibitory antibodies against factor VIII; type: biochemical; settings: antibody VK34 14 μg/ml; 1 pM TF
Experimental: as §1
(§2) Normal plasma was spiked with inhibitory antibodies against factor VIII (Sanquin, VK34, 14 μg/ml), factor IX (Sanquin, 5F5, 20 μg/ml) or factor XI (Sanquin, mix of #203 and #175, 75 μg/ml). The effect of OKL-1111 was tested in thrombin generation assay using 1 pM tissue factor (TF). This model is representative for hemophilia A, B and C patients that have developed inhibitory antibodies against plasma-derived or recombinant factor VIII or IX or XI they are treated with.

VKA plasma = assay: Thrombin generation in plasma of individuals taking vitamin K antagonists (VKA plasma); type: biochemical, human; settings: two intensities of treatment (INR); 1 pM TF
From the text: FIG. 11: Plasma was used from individuals taking vitamin K-antagonists (VKA plasma). Two different intensities of treatment (given as INR) were available, as depicted in (A) and (B). The plasmas were subjected to thrombin generation analysis as described in the Materials and Methods section with 1 pM tissue factor (TF) as initiator of coagulation.
as §1

[4] = tested on: mice anticoagulated with rivaroxaban; assay: In vivo saphenous vein bleeding model in mice anticoagulated with rivaroxaban; settings: mice fed rivaroxaban for 4 days; cyclodextrin by tail vein injection 5 min before bleeding assay; OKL-1111 dose expected to give 25 μM in plasma
Experimental: FIG. 29: In vivo analysis of procoagulant potential of OK-1111 and OKL-1147. Except for controls, animals were treated with rivaroxaban for 4 days and cyclodextrins were administered 5 min prior bleeding assay.
All animal protocols were approved by the Institutional Animal Care and Use Committee of the University of North Carolina. C57BL6/J mice were purchased from Charles Rivers Laboratories (Willmington, Mass.). Bleeding studies were done essentially as previously described Pastoft et al. (Haemophilia 2012; 18:782-8). Mice were anesthetized with isoflurane throughout all procedures. The hair on the ventral side of both hind limbs was removed. The animals were placed supine on a temperature and ECG monitoring board. The paws were gently restrained by looping soft polyethylene tubing around them and attaching the tubing to the ECG board. The skin on the left and right ventral hind limb was incised which exposes a length of the saphenous neurovascular bundle; the bundle was covered with normal saline to prevent drying. To assess haemostasis, the right saphenous vein was transected by piercing it with a 23-G needle followed by a longitudinal incision made in the distal portion of the vessel. Blood was gently wicked away until haemostasis occurred. The clot was then removed to restart bleeding and the blood was again wicked away until haemostasis occurs again. Clot disruption was repeated after every incidence of haemostasis for 30 minutes. Mice were fed chow that contained 0.1 mg rivaroxaban per g of chow. The mice were on this diet for 4 days to allow them to reach a steady state. Cyclodextrins were administered by a tail vein injection 5 minutes before the start of the bleeding assay. Two parameters were measured: 1) the number of times that haemostasis occurs in a 30 minute period, and 2) the time required for each haemostasis.

[5] = tested on: plasma deficient in coagulation factor IX; assay: Thrombin generation assay in plasma deficient in coagulation factor IX; type: biochemical, human
Experimental: as §1

[6] = tested on: normal human plasma pretreated with inhibitory antibodies against factor XI; assay: Thrombin generation in normal plasma spiked with inhibitory antibodies against factor XI; type: biochemical; settings: mix of #203 and #175, 75 μg/ml; 1 pM TF
Experimental: as §1, §2

O=C(O)CCCCCSCC1OC2OC3C(CSCCCCCC(=O)O)OC(OC4C(CSCCCCCC(=O)O)OC(OC5C(CSCCCCCC(=O)O)OC(OC6C(CSCCCCCC(=O)O)OC(OC7C(CSCCCCCC(=O)O)OC(OC8C(CSCCCCCC(=O)O)OC(OC9C(CSCCCCCC(=O)O)OC(OC1C(O)C2O)C(O)C9O)C(O)C8O)C(O)C7O)C(O)C6O)C(O)C5O)C(O)C4O)C(O)C3O (centres unmarked) [OKL-1111]
procoagulant effect in factor VIII deficient plasma [1]: stimulate coagulation significantly
hemostasis compared to factor VIII alone (Hemophilia A mice; factor VIII 2.5 IU/kg plus OKL-1111 1 μmol/kg): significantly higher
number of clots formed over a 30 minute period (Hemophilia A mice; factor VIII 2.5 IU/kg plus OKL-1111 1 μmol/kg (designed to give 25 μM in plasma)): 7-9 clots
restoring thrombin generation in plasma anticoagulated with unfractionated heparin ([2]; UFH 0.03 U/ml, OKL-1111 100 μM): capable of restoring thrombin generation
effect on the anticoagulant effect of apixaban ([2]; apixaban 60 ng/ml, cyclodextrin 100 μM): restoration of thrombin generation to levels far above that of non-anticoagulated plasma
restoring thrombin generation in plasma anticoagulated with bivalirudin ([2]; bivalirudin 10 μg/ml, OKL-1111 100 μM): capable of restoring thrombin generation
effect on the anticoagulant effect of dabigatran ([2]; dabigatran 100 ng/ml, cyclodextrin 100 μM): restoration of thrombin generation to levels far above that of non-anticoagulated plasma
effect on the anticoagulant effect of edoxaban ([2]; edoxaban 60 ng/ml, cyclodextrin 100 μM): restoration of thrombin generation to levels far above that of non-anticoagulated plasma
restoring thrombin generation in plasma anticoagulated with pentasaccharide (arixtra) ([2]; fondaparinux 2 μg/ml, OKL-1111 100 μM): capable of restoring thrombin generation
restoring thrombin generation in plasma anticoagulated with hirudin ([2]; hirudin 0.5 U/ml, OKL-1111 100 μM): capable of restoring thrombin generation
restoring thrombin generation in plasma anticoagulated with low molecular weight heparin ([2]; nadroparin 0.4 U/ml, tinzaparin 0.1 U/ml, OKL-1111 100 μM): capable of restoring thrombin generation
effect on the anticoagulant effect of rivaroxaban ([2]; rivaroxaban 100 ng/ml, cyclodextrin 100 μM): restoration of thrombin generation to levels far above that of non-anticoagulated plasma
thrombin generation in plasma with inhibitory antibodies against factor VIII [3]: concentration-dependently stimulated thrombin generation
thrombin generation in plasma of patients using vitamin K antagonists (VKA plasma): could be improved
clotting times [4]: normalization of the clotting times
procoagulant activity in factor IX deficient plasma [5]: stimulate coagulation significantly
thrombin generation in plasma with inhibitory antibodies against factor XI [6]: concentration-dependently stimulated thrombin generation
